Columns and labels:
[1] = system: KU812 (Chronic Myelogenous Leukemia); experiment: combination Emax (second highest fraction inhibited in the dose matrix, 72 h); higher = more inhibition; extreme values may be limits of the assay
Procedure, shortened: (§1)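 Cell lines grown in DMEM/F12 or RPMI with 10% FBS were plated in 1536-well plates and held 24 hours at 37°C, 5% CO2 before 72 hours of exposure to two-drug dose matrices, with DMSO typically at 0.2%. CellTiter-Glo 2.0 luminescence gave viability, which was converted to inhibition. Vehicle wells were set to 0 and blank wells to 1. Combination Emax is the second-highest inhibition in the matrix, and Bliss excess is the observed combination effect minus the expected EA + EB − EA·EB, where EA and EB are the single-agent effects.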

M059J (Glioblastoma) [2] = experiment: as above
Procedure, shortened: as §1

[3] = system: NCI-H526 (Small Cell Lung Carcinoma); experiment: as above
Procedure, shortened: as §1

[4] = system: SK-GT-4 (Esophageal Adenocarcinoma); experiment: as above
Procedure, shortened: as §1

[5] = system: NCI-H520 (Squamous Cell Lung Carcinoma); experiment: as above
Procedure, shortened: as §1

[6] = system: CW-2 (Colorectal Carcinoma); experiment: as above
Procedure, shortened: as §1

[7] = system: COR-L279 (Small Cell Lung Carcinoma); experiment: as above
Procedure, shortened: as §1

[8] = system: VMRC-RCZ (Kidney Carcinoma); experiment: as above
Procedure, shortened: as §1

[9] = system: MOG-G-CCM (Low Grade Glioma); experiment: as above
Procedure, shortened: as §1

[10] = system: T-T (Esophageal Squamous Cell Carcinoma); experiment: as above
Procedure, shortened: as §1

[11] = system: NCI-H929 (Plasma Cell Myeloma); experiment: as above
Procedure, shortened: as §1

NCI-H2731 (Mesothelioma) [12] = experiment: as above
Procedure, shortened: as §1

[13] = system: NCI-H3122 (Lung Adenocarcinoma); experiment: as above
Procedure, shortened: as §1

[14] = system: DMS-114 (Small Cell Lung Carcinoma); experiment: as above
Procedure, shortened: as §1

[15] = system: NCCIT (Other Solid Carcinomas); experiment: as above
Procedure, shortened: as §1

[16] = system: KYSE-270 (Esophageal Squamous Cell Carcinoma); experiment: as above
Procedure, shortened: as §1

SJSA-1 (Osteosarcoma) [17] = experiment: as above
Procedure, shortened: as §1

[18] = system: MN-60 (B-Lymphoblastic Leukemia); experiment: as above
Procedure, shortened: as §1

[19] = system: KP-3 (Pancreatic Carcinoma); experiment: as above
Procedure, shortened: as §1

[20] = system: ST486 (Burkitt's Lymphoma); experiment: as above
Procedure, shortened: as §1

[21] = system: OCI-AML3 (Acute Myeloid Leukemia); experiment: as above
Procedure, shortened: as §1

[22] = system: KU812 (Chronic Myelogenous Leukemia); experiment: Bliss excess, mean over the matrix (fraction); higher = more synergy
Procedure, shortened: as §1

M059J (Glioblastoma) [23] = experiment: as above
Procedure, shortened: as §1

[24] = system: NCI-H526 (Small Cell Lung Carcinoma); experiment: as above
Procedure, shortened: as §1

[25] = system: SK-GT-4 (Esophageal Adenocarcinoma); experiment: as above
Procedure, shortened: as §1

[26] = system: NCI-H520 (Squamous Cell Lung Carcinoma); experiment: as above
Procedure, shortened: as §1

[27] = system: CW-2 (Colorectal Carcinoma); experiment: as above
Procedure, shortened: as §1

[28] = system: COR-L279 (Small Cell Lung Carcinoma); experiment: as above
Procedure, shortened: as §1

[29] = system: VMRC-RCZ (Kidney Carcinoma); experiment: as above
Procedure, shortened: as §1

[30] = system: MOG-G-CCM (Low Grade Glioma); experiment: as above
Procedure, shortened: as §1

[31] = system: T-T (Esophageal Squamous Cell Carcinoma); experiment: as above
Procedure, shortened: as §1

[32] = system: NCI-H929 (Plasma Cell Myeloma); experiment: as above
Procedure, shortened: as §1

NCI-H2731 (Mesothelioma) [33] = experiment: as above
Procedure, shortened: as §1

[34] = system: NCI-H3122 (Lung Adenocarcinoma); experiment: as above
Procedure, shortened: as §1

[35] = system: DMS-114 (Small Cell Lung Carcinoma); experiment: as above
Procedure, shortened: as §1

[36] = system: NCCIT (Other Solid Carcinomas); experiment: as above
Procedure, shortened: as §1

[37] = system: KYSE-270 (Esophageal Squamous Cell Carcinoma); experiment: as above
Procedure, shortened: as §1

SJSA-1 (Osteosarcoma) [38] = experiment: as above
Procedure, shortened: as §1

[39] = system: MN-60 (B-Lymphoblastic Leukemia); experiment: as above
Procedure, shortened: as §1

[40] = system: KP-3 (Pancreatic Carcinoma); experiment: as above
Procedure, shortened: as §1

[41] = system: ST486 (Burkitt's Lymphoma); experiment: as above
Procedure, shortened: as §1

[42] = system: OCI-AML3 (Acute Myeloid Leukemia); experiment: as above
Procedure, shortened: as §1
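Wherever Bliss excess, mean over the matrix is given: after 72 h of two-drug dosing.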

SMILES: CN(CCO)CC[C@H](CSc1ccccc1)Nc1ccc(S(=O)(=O)NC(=O)c2ccc(N3CCC([C@@H](O)c4ccccc4-c4ccc(Cl)cc4)CC3)cc2)cc1S(=O)(=O)C(F)(F)F [AZD4320] + CC(=O)O[C@H]1C(=O)[C@@]2(C)[C@H]([C@H](OC(=O)c3ccccc3)[C@]3(O)C[C@H](OC(=O)[C@H](O)[C@@H](NC(=O)c4ccccc4)c4ccccc4)C(C)=C1C3(C)C)[C@]1(OC(C)=O)CO[C@@H]1C[C@@H]2O [Paclitaxel] (first compound max 1 µM, 7x7, partner max 3 µM)
- combination Emax [1]: 0.943
- combination Emax (M059J (Glioblastoma) [2]): 0.974
- combination Emax [3]: 1
- combination Emax [4]: 0.894
- combination Emax [5]: 0.944
- combination Emax [6]: 0.608
- combination Emax [7]: 1
- combination Emax [8]: 0.693
- combination Emax [9]: 0.996
- combination Emax [10]: 0.92
- combination Emax [11]: 0.926
- combination Emax (NCI-H2731 (Mesothelioma) [12]): 0.932
- combination Emax [13]: 0.999
- combination Emax [14]: 0.879
- combination Emax [15]: 0.989
- combination Emax [16]: 0.913
- combination Emax (SJSA-1 (Osteosarcoma) [17]): 0.967
- combination Emax [18]: 0.546
- combination Emax [19]: 0.8
- combination Emax [20]: 1
- combination Emax [21]: 1
- Bliss excess [22]: -0.0252
- Bliss excess (M059J (Glioblastoma) [23]): 0.0756
- Bliss excess [24]: 0.0193
- Bliss excess [25]: 0.0543
- Bliss excess [26]: 0.0142
- Bliss excess [27]: -0.0328
- Bliss excess [28]: 0.0141
- Bliss excess [29]: 0.128
- Bliss excess [30]: 0.0506
- Bliss excess [31]: 0.0528
- Bliss excess [32]: -0.0687
- Bliss excess (NCI-H2731 (Mesothelioma) [33]): 0.0876
- Bliss excess [34]: 0.0379
- Bliss excess [35]: 0.0486
- Bliss excess [36]: 0.0317
- Bliss excess [37]: 0.0171
- Bliss excess (SJSA-1 (Osteosarcoma) [38]): 0.0637
- Bliss excess [39]: 0.0332
- Bliss excess [40]: 0.131
- Bliss excess [41]: -0.0016
- Bliss excess [42]: 0.007

SMILES: Cc1c2c(nn1C)CSCc1cc(n(C)n1)CSc1cc(c3ccccc3c1)OCCCc1c(C(=O)O)n(C)c3c-2c(Cl)ccc13 [AZD5991] + CS(=O)(=O)CCNCc1ccc(-c2ccc3ncnc(Nc4ccc(OCc5cccc(F)c5)c(Cl)c4)c3c2)o1 [Lapatinib] (first compound max 1 µM, 7x7, partner max 10 µM)
- combination Emax [1]: 0.867
- combination Emax (M059J (Glioblastoma) [2]): 0.456
- combination Emax [3]: 0.469
- combination Emax [4]: 0.379
- combination Emax [5]: 0.435
- combination Emax [6]: 0.531
- combination Emax [7]: 0.903
- combination Emax [8]: 0.209
- combination Emax [9]: 0.358
- combination Emax [10]: 0.988
- combination Emax [11]: 1
- combination Emax (NCI-H2731 (Mesothelioma) [12]): 0.44
- combination Emax [13]: 0.392
- combination Emax [14]: 0.608
- combination Emax [15]: 0.635
- combination Emax [16]: 0.959
- combination Emax (SJSA-1 (Osteosarcoma) [17]): 0.196
- combination Emax [18]: 0.158
- combination Emax [19]: 0.303
- combination Emax [20]: 0.758
- combination Emax [21]: 0.985
- Bliss excess [22]: -0.0005
- Bliss excess (M059J (Glioblastoma) [23]): -0.0103
- Bliss excess [24]: 0.0226
- Bliss excess [25]: 0.0391
- Bliss excess [26]: 0.0111
- Bliss excess [27]: 0.0142
- Bliss excess [28]: -0.0053
- Bliss excess [29]: -0.0195
- Bliss excess [30]: -0.0322
- Bliss excess [31]: 0.0522
- Bliss excess [32]: -0.0113
- Bliss excess (NCI-H2731 (Mesothelioma) [33]): 0.0234
- Bliss excess [34]: -0.0164
- Bliss excess [35]: -0.0358
- Bliss excess [36]: -0.0119
- Bliss excess [37]: 0.016
- Bliss excess (SJSA-1 (Osteosarcoma) [38]): -0.0115
- Bliss excess [39]: -0.0584
- Bliss excess [40]: -0.003
- Bliss excess [41]: -0.0655
- Bliss excess [42]: -0.0516

SMILES: C[C@@H](Oc1cc(-c2cnn(C3CCNCC3)c2)cnc1N)c1c(Cl)ccc(F)c1Cl [Crizotinib] + CC1=C(C(=CC=C1)Cl)NC(=O)C2=CN=C(S2)NC3=CC(=NC(=N3)C)N4CCN(CC4)CCO [Dasatinib] (first compound max 10 µM, 7x7, partner max 2 µM)
- combination Emax [1]: 1
- combination Emax (M059J (Glioblastoma) [2]): 0.829
- combination Emax [3]: 0.452
- combination Emax [4]: 0.812
- combination Emax [5]: 0.659
- combination Emax [6]: 0.306
- combination Emax [7]: 0.839
- combination Emax [8]: 0.846
- combination Emax [9]: 0.921
- combination Emax [10]: 0.825
- combination Emax [11]: 0.999
- combination Emax (NCI-H2731 (Mesothelioma) [12]): 0.888
- combination Emax [13]: 0.881
- combination Emax [14]: 0.591
- combination Emax [15]: 0.342
- combination Emax [16]: 0.792
- combination Emax (SJSA-1 (Osteosarcoma) [17]): 0.885
- combination Emax [18]: 0.494
- combination Emax [19]: 0.127
- combination Emax [20]: 0.95
- combination Emax [21]: 0.639
- Bliss excess [22]: 0.0121
- Bliss excess (M059J (Glioblastoma) [23]): 0.024
- Bliss excess [24]: -0.0339
- Bliss excess [25]: 0.0033
- Bliss excess [26]: 0.0375
- Bliss excess [27]: -0.0315
- Bliss excess [28]: 0.0599
- Bliss excess [29]: 0.0518
- Bliss excess [30]: 0.0574
- Bliss excess [31]: 0.0322
- Bliss excess [32]: -0.0147
- Bliss excess (NCI-H2731 (Mesothelioma) [33]): 0.0443
- Bliss excess [34]: -0.0882
- Bliss excess [35]: -0.0562
- Bliss excess [36]: -0.0416
- Bliss excess [37]: 0.0481
- Bliss excess (SJSA-1 (Osteosarcoma) [38]): -0.0238
- Bliss excess [39]: -0.0074
- Bliss excess [40]: -0.057
- Bliss excess [41]: 0.0506
- Bliss excess [42]: 0.0207

SMILES: O=C(c1cc(Cc2n[nH]c(=O)c3ccccc23)ccc1F)N1CCN(C(=O)C2CC2)CC1 [Olaparib] + CN(CC[C@H](CSC1=CC=CC=C1)NC2=C(C=C(C=C2)S(=O)(=O)NC(=O)C3=CC=C(C=C3)N4CCC(CC4)[C@H](C5=CC=CC=C5C6=CC=C(C=C6)Cl)O)S(=O)(=O)C(F)(F)F)CCO [AZD4320] (first compound max 10 µM, 7x7, partner max 1 µM)
- combination Emax [1]: 0.862
- combination Emax (M059J (Glioblastoma) [2]): 0.321
- combination Emax [3]: 0.916
- combination Emax [4]: 0.154
- combination Emax [5]: 0.125
- combination Emax [6]: 0.113
- combination Emax [7]: 0.992
- combination Emax [8]: 0.0911
- combination Emax [9]: 0.445
- combination Emax [10]: 0.233
- combination Emax [11]: 0.142
- combination Emax (NCI-H2731 (Mesothelioma) [12]): 0.0908
- combination Emax [13]: 0.223
- combination Emax [14]: 0.214
- combination Emax [15]: 0.198
- combination Emax [16]: 0.383
- combination Emax (SJSA-1 (Osteosarcoma) [17]): 0.133
- combination Emax [18]: 0.25
- combination Emax [19]: 0.104
- combination Emax [20]: 0.754
- combination Emax [21]: 0.548
- Bliss excess [22]: -0.0517
- Bliss excess (M059J (Glioblastoma) [23]): -0.0174
- Bliss excess [24]: 0.0311
- Bliss excess [25]: -0.0508
- Bliss excess [26]: -0.0283
- Bliss excess [27]: -0.0353
- Bliss excess [28]: 0.0282
- Bliss excess [29]: -0.064
- Bliss excess [30]: -0.0282
- Bliss excess [31]: -0.0174
- Bliss excess [32]: -0.0336
- Bliss excess (NCI-H2731 (Mesothelioma) [33]): -0.0491
- Bliss excess [34]: -0.0184
- Bliss excess [35]: -0.0971
- Bliss excess [36]: -0.0075
- Bliss excess [37]: -0.0221
- Bliss excess (SJSA-1 (Osteosarcoma) [38]): -0.0509
- Bliss excess [39]: -0.044
- Bliss excess [40]: -0.0422
- Bliss excess [41]: -0.0192
- Bliss excess [42]: 0.057

— the supplement of paper PMC11061612
